# Calls of active or inactive are those of the source. No cut-off for these calls is given here.
# Tests used:
# Assay type in all cases: functional, organism-based
# [1] = tested on: Mus musculus; assay: Antiinflammatory activity in […] mouse assessed as inhibition of TPA-induced IL-1alpha mRNA expression in epidermis at 2 umol administered topically 30 mins prior to TPA challenge for twice weekly over 2 weeks measured 6 hrs post last TPA challenge by qRT-PCR analysis
# [2] = tested on: Mus musculus; assay: Antiinflammatory activity in […] mouse assessed as inhibition of TPA-induced IL-1beta mRNA expression in epidermis at 2 umol administered topically 30 mins prior to TPA challenge for twice weekly over 2 weeks measured 6 hrs post last TPA challenge by qRT-PCR analysis
# [3] = tested on: Mus musculus; assay: Antiinflammatory activity in […] mouse assessed as inhibition of TPA-induced IL-6 mRNA expression in epidermis at 2 umol administered topically 30 mins prior to TPA challenge for twice weekly over 2 weeks measured 6 hrs post last TPA challenge by qRT-PCR analysis
# [4] = tested on: Mus musculus; assay: Antiinflammatory activity in […] mouse assessed as inhibition of TPA-induced IL-23 mRNA expression in epidermis at 2 umol administered topically 30 mins prior to TPA challenge for twice weekly over 2 weeks measured 6 hrs post last TPA challenge by qRT-PCR analysis
SMILES,inhibition [1],inhibition [2],inhibition [3],inhibition [4]
C[C@H]1[C@H](C)CC[C@]2(C(=O)O)CC[C@]3(C)C(=CC[C@@H]4[C@@]5(C)C[C@@H](O)[C@@H](O)C(C)(C)[C@@H]5CC[C@]43C)[C@H]12,Active,Active,Active,Active
CC1(C)CC[C@]2(C(=O)O)CC[C@]3(C)C(=CC[C@@H]4[C@@]5(C)C[C@@H](O)[C@@H](O)C(C)(C)[C@@H]5CC[C@]43C)[C@@H]2C1,inactive,inactive,inactive,inactive
C[C@H]1[C@H](C)CC[C@]2(C(=O)O)CC[C@]3(C)C(=CC[C@@H]4[C@@]5(C)C[C@@H](O)[C@H](O)C(C)(C)[C@@H]5CC[C@]43C)[C@H]12,Active,Active,Active,Active
CC1(C)CC[C@]2(C(=O)O)CC[C@]3(C)C(=CC[C@@H]4[C@@]5(C)CC[C@H](O)C(C)(C)[C@@H]5CC[C@]43C)[C@@H]2C1,inactive,inactive,inactive,inactive
C[C@H]1[C@H](C)CC[C@]2(C(=O)O)CC[C@]3(C)C(=CC[C@@H]4[C@@]5(C)CC[C@H](O)C(C)(C)[C@@H]5CC[C@]43C)[C@H]12,inactive,inactive,inactive,inactive
CC1(C)CC[C@]2(C(=O)O)CC[C@]3(C)C(=CC[C@@H]4[C@@]5(C)C[C@@H](O)[C@H](O)C(C)(C)[C@@H]5CC[C@]43C)[C@@H]2C1,Active,Active,Active,Active

# — ChEMBL document CHEMBL3616450, “Synthesis of oxygenated oleanolic and ursolic acid derivatives with anti-inflammatory properties” (Bioorg Med Chem Lett, 2015)
